Values after ≈ are worked out from the molar mass of the structure shown. Where two headings read alike, the source gives them in different places.
Assays:
[1] = Solubility of TRIMEA and DIMEB and complex formation between the two hosts in absence of a guest; type: physicochemical
Protocol: TRIMEA and DIMEB dissolve in water more than 33 g per 100 ml of water. The solubilities of both these compounds in water can be decreased by the addition of salts or by an increase of temperature. Thus, in aqueous solution of sodium sulfate (1 M), TRIMEA dissolved to the saturation concentration just of 0.4 mg/ml and DIMEB to 3.4 mg/ml. […] If a 1:1 complex between TRIMEA and DIMEB is assumed to form, the association constant of 700 [1/M] can be estimated for that complex, which is of the same order of magnitude as association constants of many complexes formed of guests and cyclodextrins.

[2] = Preparation and stabilization of colloidal compositions of calcium fluoride; type: physicochemical; conditions: alone or in combination with TRIMEA; precipitation from calcium chloride and sodium fluoride
[3] = Solubilization of FTS by two different hosts in water (equilibration for a week, filtration, UV spectrophotometry); type: physicochemical; conditions: for solubility at 1 week: aqueous host solution, aqueous with cosolvent or surfactant or cyclodextrin, thermodynamic from solid
Protocol: (§1) no enhancement with two hosts. Water was used as the solvent for all data in the Table for Example 1. When a sodium carbonate based buffer of pH 10 was used as a solvent (conditions in which FTS is converted to its salt), the solubility of FTS in TRIMEA combined with DIMEB or in TRIMEA combined with Pitha methyl derivatives exceeds 60 mg per ml. Cooperativity, in this case, could not be calculated since, in these conditions, even solubilization by one component alone (DIMEB or Pitha methyl derivative) was over 60 mg per ml.

[4] = Solubilization of FTS by hosts in sodium carbonate based buffer of pH 10; type: physicochemical
Protocol: as §1

[5] = Solubilization of FTS by TRIMEA and DIMEB: continuous variation and concentration dependence; type: physicochemical; conditions: water
Text: The optimum ratio of hosts was established by the continuous variation method, using techniques of Example 1 and water as a solvent. The results in Table A for Example 3 indicate that the optimum solubility is obtained when both hosts are in about equal concentrations. […]

physchem = conditions: 1 week
Text: A slight excess of FTS was equilibrated with water containing one host at 5% concentration or two hosts, each at 5% concentration, by rotation for a week. The suspension was then filtered through a millipore filter and the concentration of FTS in filtrate determined by ultraviolet spectrophotometry. […] The cooperativity index reflects the improvement in solubility obtained with each combination of two hosts over the solubility obtained with each of the individual hosts involved in the two-host system. It is computed by dividing the obtained solubility with two hosts by the sum of the individual solubilities obtained with each component.

[6] = Solubilization of choline and sodium salts of FTS and other acidic drugs by cyclodextrins
Protocol: The solid obtained thereby was heated on a boiling water bath.
In this procedure, FTS (10 mg, 28 micromoles) was dissolved with warming in ethanol (20 microliters) and an aqueous solution of sodium hydroxide (30 microliters of 1 M NaOH carbonate free, i.e., 30 micromoles) was added. […] This clear solution then was added to the solution of Pitha methyl derivative (100 mg) in isotonic phosphate buffered saline (1 ml, pH 7.4).
In these investigations, choline salts were prepared by extraction with organic solvents of mixtures of sodium salts of the anion in question and choline chloride. There mixtures were either solid or in aqueous solutions.

[7] = Solubilization of FTS by TRIMEA and DIMEB: continuous variation and concentration dependence; type: physicochemical
insulin = insulin (Homo sapiens, UniProt P01308); test: Stabilization and solubilization of insulin by highly methylated cyclodextrins; type: physicochemical; conditions: cyclodextrins at 2 or 4% in phosphate buffered solution, insulin 1 mg/ml, final pH less than 6
Chain of insulin (P01308 25-54 limits assumed, species assumed): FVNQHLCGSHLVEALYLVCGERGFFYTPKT
Chain of insulin (P01308 90-110 limits assumed, species assumed): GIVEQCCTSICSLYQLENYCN

[8] = hosts Alpha Cyclodextrin - DIMEB, each 5% in water
[9] = hosts Alpha Cyclodextrin - TRIMEB, each 5% in water
[10] = hosts Beta Cyclodextrin - TRIMEB, each 5% in water
[11] = hosts DIMEB - PERM HPBCD, each 5% in water
[12] = hosts DIMEB - TRIMEB, each 5% in water
[13] = hosts DIMEB - TRIMEG, each 5% in water
[14] = hosts G2 - DIMEB, each 5% in water
[15] = hosts G2 - TRIMEB, each 5% in water
[16] = hosts G2 - TRIMEG, each 5% in water
[17] = hosts HPACD - HPBCD, each 5% in water
[18] = hosts Pitha Methyl 258 - TRIMEB, each 5% in water
[19] = hosts Pitha Methyl 322 - DIMEB, each 5% in water
[20] = hosts TRIMEA - DIMEB, each 5% in water
[21] = hosts TRIMEA - G2, each 5% in water
[22] = hosts TRIMEA - Pitha Methyl 258, each 5% in water

With `COC[C@H]1O[C@@H]2O[C@H]3[C@H](O)[C@@H](OC)[C@@H](O[C@H]4[C@H](O)[C@@H](OC)[C@@H](O[C@H]5[C@H](O)[C@@H](OC)[C@@H](O[C@H]6[C@H](O)[C@@H](OC)[C@@H](O[C@H]7[C@H](O)[C@@H](OC)[C@@H](O[C@H]8[C@H](O)[C@@H](OC)[C@@H](O[C@H]1[C@H](O)[C@H]2OC)O[C@@H]8COC)O[C@@H]7COC)O[C@@H]6COC)O[C@@H]5COC)O[C@@H]4COC)O[C@@H]3COC` [DIMEB] the saturation concentration ([1]; aqueous solution of sodium sulfate (1 M)) was 3.4 mg/mL and the “preparation and stabilization of colloidal compositions of calcium fluoride” value [2] was “effective”.
For `CC(C)=CCCC(C)=CCCC(C)=CCSc1ccccc1C(=O)O` [FTS, S-farnesylthiosalicylic acid], the solubility at 1 week [3, 8] was 1400 µg/mL (≈ 3.9 mM), the solubility at 1 week [3, 9] was 100 µg/mL (≈ 0.279 mM) and the solubility at 1 week [3, 10] was 26 µg/mL (≈ 0.0725 mM). The solubility at 1 week [3, 11] was 1100 µg/mL (≈ 3.07 mM), the solubility at 1 week [3, 12] was 2600 µg/mL (≈ 7.25 mM) and the solubility at 1 week [3, 13] was 1400 µg/mL (≈ 3.9 mM). For the same compound, the solubility at 1 week [3, 14] was 2400 µg/mL (≈ 6.69 mM), the solubility at 1 week [3, 15] was 1100 µg/mL (≈ 3.07 mM) and the solubility at 1 week [3, 16] was 1000 µg/mL (≈ 2.79 mM). It also gave a solubility at 1 week [3, 17] of 52 µg/mL (≈ 0.145 mM), a solubility at 1 week [3, 18] of 950 µg/mL (≈ 2.65 mM) and a solubility at 1 week [3, 19] of 1300 µg/mL (≈ 3.63 mM). It also gave a solubility at 1 week [3, 20] of 6600 µg/mL (≈ 18.4 mM), a solubility at 1 week [3, 21] of 3900 µg/mL (≈ 10.9 mM) and a solubility at 1 week [3, 22] of 5700 µg/mL (≈ 15.9 mM). The “Cooperativity (observed ÷ Σ components)” value [3, 8] was 1.0, the “Cooperativity (observed ÷ Σ components)” value [3, 9] was 0.6 and the “Cooperativity (observed ÷ Σ components)” value [3, 10] was 0.2. For the same compound, the “Cooperativity (observed ÷ Σ components)” value [3, 11] was 0.8, the “Cooperativity (observed ÷ Σ components)” value [3, 12] was 1.8 and the “Cooperativity (observed ÷ Σ components)” value [3, 13] was 1.0. For the same compound, the “Cooperativity (observed ÷ Σ components)” value [3, 14] was 1.0, the “Cooperativity (observed ÷ Σ components)” value [3, 15] was 1.0 and the “Cooperativity (observed ÷ Σ components)” value [3, 16] was 1.0. For the same compound, the “Cooperativity (observed ÷ Σ components)” value [3, 17] was 0.3, the “Cooperativity (observed ÷ Σ components)” value [3, 18] was 1.4 and the “Cooperativity (observed ÷ Σ components)” value [3, 19] was 0.7. For the same compound, the “Cooperativity (observed ÷ Σ components)” value [3, 20] was 4.1, the “Cooperativity (observed ÷ Σ components)” value [3, 21] was 3.0 and the “Cooperativity (observed ÷ Σ components)” value [3, 22] was 9.4. The “solubility of FTS” value ([4]; TRIMEA combined with DIMEB, sodium carbonate based buffer of pH 10 (FTS converted to its salt)) was “exceeds 60 mg per ml”, the “solubility of FTS” value ([4]; TRIMEA combined with Pitha methyl derivatives, sodium carbonate based buffer of pH 10) was “exceeds 60 mg per ml” and the “FTS” value ([5]; TRIMEA 0 % w/w, DIMEB 5 % w/w) was 1.55 mg/mL. For the same compound, the “FTS” value ([5]; TRIMEA 1 % w/w, DIMEB 4 % w/w) was 2.29 mg/mL, the “FTS” value ([5]; TRIMEA 2 % w/w, DIMEB 3 % w/w) was 2.66 mg/mL and the “FTS” value ([5]; TRIMEA 3 % w/w, DIMEB 2 % w/w) was 2.79 mg/mL. The “FTS” value ([5]; TRIMEA 4 % w/w, DIMEB 1 % w/w) was 2.33 mg/mL, the “FTS” value ([5]; TRIMEA 5 % w/w, DIMEB 0 % w/w) was 0.19 mg/mL and the “single, highly methylated cyclodextrin host outperformed the current standard” value (physchem) was “over 2 times”. For the same compound, the “solubilization of choline salts” value [6] was “easily solubilized”, the “FTS” value ([7]; TRIMEA 2 % w/w, DIMEB 2 % w/w) was 2.13 mg/mL and the “FTS” value ([7]; TRIMEA 5 % w/w, DIMEB 5 % w/w) was 8.53 mg/mL. For the same compound, the “FTS” value ([7]; TRIMEA 10 % w/w, DIMEB 10 % w/w) was 15.86 mg/mL and the “FTS (mg/ml)” value ([7]; TRIMEA 15 % w/w, DIMEB 15 % w/w) was “(>than 17.17, all dissolved) mg/ml”.
In the case of `COC[C@H]1O[C@@H]2O[C@@H]3[C@@H](OC)[C@@H](OC)[C@@H](O[C@@H]4[C@@H](OC)[C@@H](OC)[C@@H](O[C@@H]5[C@@H](OC)[C@@H](OC)[C@@H](O[C@@H]6[C@@H](OC)[C@@H](OC)[C@@H](O[C@@H]7[C@@H](OC)[C@@H](OC)[C@@H](O[C@@H]1[C@@H](OC)[C@H]2OC)O[C@@H]7COC)O[C@@H]6COC)O[C@@H]5COC)O[C@@H]4COC)O[C@@H]3COC` [TRIMEA], the saturation concentration [1] is reported as 0.4 mg/mL and the “stabilizer of the dissolved insulin” value (insulin) is reported as “more effective stabilizer of the dissolved insulin than DIMEB or TRIMEB”.

Source: US6576261B1, “Potentiation of inclusion complex formation of cyclodextrin derivatives” (priority 1999, dated 2003)
